Data set [1] in a line: Cell viability assay (MTT) on MCF-10A normal cells. It counts as cell-based. To be noted: human, MCF-10A mammary gland epithelial normal cells, MCF-10A cells, four-day incubation. Here is the method:
The impact of compounds 3a–h and 5a–d on cell viability was evaluated using the human mammary (MCF-10A) gland epithelium normal cell line. The MTT assay was used to evaluate the cell viability of 3a–h and 5a–d after a four-day incubation period on MCF-10A cells.[46] Refer to Appendix A for more details.
The effect of new compounds 3a–h and 5a–d on cell viability was evaluated using the MCF-10A (human mammary gland epithelium) normal cell line.
4.2. Biological evaluation
4.2.1 Cell Viability assay (MTT assay)
MTT assay was performed to investigate the effect of the synthesized compounds on mammary epithelial cells (MCF-10A). The cells were propagated in medium consisting of Ham's F-12 medium/ Dulbecco's modified Eagle's medium (DMEM) (1:1) supplemented with 10% foetal calf serum, 2 mM glutamine, insulin (10 μg/mL), hydrocortisone (500 ng/mL) and epidermal growth factor (20 ng/mL). Trypsin ethylenediamine tetra acetic acid (EDTA) was used to passage the cells after every 2-3 days. 96-well flat-bottomed cell culture plates were used to seed the cells at a density of 10^4 cells mL-1. The medium was aspirated from all the wells of culture plates after 24 h followed by the addition of synthesized compounds (in 200 μL medium to yield a final concentration of 0.1% (v/v) dimethyl sulfoxide) into individual wells of the plates. Four wells were designated to a single compound. The plates were allowed to incubate at 37°C for 96 h. Afterwards, the medium was aspirated and 3-[4,5-dimethylthiazol-2-yl]-2,5-diphenyltetrazolium bromide (MTT) (0.4 mg/mL) in medium was added to each well and subsequently incubated for 3 h. The medium was aspirated and 150 μL dimethyl sulfoxide (DMSO) was added to each well. The plates were vortexed followed by the measurement of absorbance at 540 nm on a microplate reader. The results were presented as inhibition (%) of proliferation in contrast to controls comprising 0.1% DMSO.

Data set [2] relates to A-549 lung cancer cell line. Put plainly: Antiproliferative assay, A-549. In kind it is cell-based. The following applies: Homo sapiens, A549; A-549 lung cancer cells; read-out: Antiproliferative activity IC50 ± SEM, A-549.
Data set [3] deals with MCF-7 breast cancer cell line. Put plainly: Antiproliferative assay, MCF-7. In kind it is cell-based. The following applies: Homo sapiens, MCF7; MCF-7 breast cancer cells; read-out: Antiproliferative activity IC50 ± SEM, MCF-7.
In data set [4] the test system is HT-29 colon cancer cell line. Description: Antiproliferative assay, HT-29. It counts as cell-based. The following applies: Homo sapiens; HT-29 colon cancer cells; read-out: Antiproliferative activity IC50 ± SEM, HT-29.
Data set [5] deals with four human cancer cell lines (A-549, MCF-7, Panc-1, HT-29). Description: Antiproliferative assay, average over four cancer cell lines. In kind it is cell-based. To be noted: Homo sapiens, average IC50 over the four cancer cell lines.
Data set [6] has as its system Caspase-3. Put plainly: Caspase-3 activation assay in MCF-7 cells. The following applies: for Caspase-3 Conc.: treated at IC50 concentration; for Caspase-3 Fold change: versus untreated control. It counts as cell-based, human.
Data set [7] has as its system Bcl-2. Put plainly: Bcl-2 inhibition assay in MCF-7 cells. In kind it is cell-based, human. To be noted: for Bcl-2 Conc.: treated at IC50 values. Here is the method: Additionally, the treatment led to a notable reduction in anti-apoptotic Bcl-2 expression levels, with a fold decrease of roughly 6 for compound 3e and 8 for compound 5a. Compounds 3e and 5a markedly elevated the Bax/Bcl-2 ratio compared to the control untreated cells. […]
4.2.8. Bcl-2 inhibition assay
Mix all reagents thoroughly without foaming before use. Wash the microwells twice with approximately 300 μL Wash Buffer per well with thorough aspiration of microwell contents between washes. Take caution not to scratch the surface of the microwells. After the last wash, empty the wells and tap microwell strips on absorbent pad or paper towel to remove excess Wash Buffer. Use the microwell strips immediately after washing or place upside down on a wet absorbent paper for not […]
longer than 15 minutes. […] Add 100 μL of Sample Diluent in duplicate to all standard wells and to the blank wells. Prepare standard (1:2 dilution) in duplicate ranging from 32 ng/mL to 0.5 ng/mL. Add 100 μL of Sample Diluent, in duplicate, to the blank wells. Add 80 μL of Sample Diluent, in duplicate, to the sample wells. Add 20 μL of each Sample, in duplicate, to the designated wells. Add 50 μL of diluted biotin-conjugate to all wells, including the blank wells. Cover with a plate cover and incubate at room temperature, on a microplate shaker at 100 rpm if available, for 2 hours. Remove plate cover and empty the wells. Wash microwell strips 3 times as described in step 2. Add 100 μL of diluted Streptavidin-HRP to all wells, including the blank wells. Cover with a plate cover and incubate at room temperature, on a microplate shaker at 100 rpm if available, for 1 hour. Remove plate cover and empty the wells. Wash microwell strips 3 times as described in step 2.
Proceed to the next step. Pipette 100 μl of mixed TMB Substrate Solution to all wells, including the blanks. Incubate the microwell strips at room temperature (18° to 25°C) for about 15 minutes, if available on a rotator set at 100 rpm. Avoid direct exposure to intense light. The point, at which the substrate reaction is stopped, is often determined by the ELISA reader. Many ELISA readers record absorbance only up to 2.0 O.D. Therefore, the color development within individual microwells must be watched by the person running the assay and the substrate reaction stopped before positive wells are no longer properly detectable. Stop the enzyme reaction by quickly pipetting 100 μL of Stop Solution into each well, including the blank wells. It is important that the Stop Solution is spread quickly and uniformly throughout the microwells to completely inactivate the enzyme. Results must be read immediately after the Stop Solution is added or within one hour if the microwell strips are stored at 2 - 8°C in the dark. Read absorbance of each microwell on a spectrophotometer using 450 nm as the primary wavelength.
4.3. Statistical analysis
Computerized Prism 5 program was used to statistically analyzed data using one-way ANOVA test followed by Tukey’s as post ANOVA for multiple comparison at P ≤.05. Data were presented as […]

The target in data set [8] is EGFR (Homo sapiens, UniProt P00533). Description: EGFR inhibitory assay (EGFR-TK assay).
The target in data set [9] is HER2 (Homo sapiens, UniProt P04626). Put plainly: HER2 inhibitory assay (ADP-Glo kinase assay). (ADP-Glo first removes unused ATP, then detects ADP through luciferase.)

Data on two compounds can be found in article PMC11492426, “Design, synthesis, and biological evaluation of novel quinoline-based EGFR/HER-2 dual-target inhibitors as potential anti-tumor agents” (RSC Advances, 2024).

One may read the viability as a per cent measure of how many cells are alive, often set against a control. The IC50 is the concentration needed to halve the response being measured. By GI50 is commonly meant the concentration at which growth is held to half of that of the control. High values mean lower sensitivity of the cells, low ones greater sensitivity of the cells.

Sequence of HER2 (P04626 676-1255 limits assumed): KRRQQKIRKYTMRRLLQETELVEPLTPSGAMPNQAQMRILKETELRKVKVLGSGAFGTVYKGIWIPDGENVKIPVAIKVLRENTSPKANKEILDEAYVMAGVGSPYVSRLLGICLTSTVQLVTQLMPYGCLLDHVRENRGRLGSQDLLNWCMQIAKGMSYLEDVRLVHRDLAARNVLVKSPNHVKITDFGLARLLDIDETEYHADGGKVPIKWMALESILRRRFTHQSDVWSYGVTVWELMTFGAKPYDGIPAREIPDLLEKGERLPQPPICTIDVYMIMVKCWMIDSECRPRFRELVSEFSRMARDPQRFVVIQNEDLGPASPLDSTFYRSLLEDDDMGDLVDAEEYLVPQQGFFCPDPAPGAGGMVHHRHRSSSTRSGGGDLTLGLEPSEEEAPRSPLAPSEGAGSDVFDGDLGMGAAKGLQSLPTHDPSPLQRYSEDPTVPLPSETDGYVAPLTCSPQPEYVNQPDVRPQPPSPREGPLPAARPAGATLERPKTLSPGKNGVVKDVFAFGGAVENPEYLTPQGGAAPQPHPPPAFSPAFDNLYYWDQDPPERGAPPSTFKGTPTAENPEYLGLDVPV
Sequence of EGFR (P00533 669-1210): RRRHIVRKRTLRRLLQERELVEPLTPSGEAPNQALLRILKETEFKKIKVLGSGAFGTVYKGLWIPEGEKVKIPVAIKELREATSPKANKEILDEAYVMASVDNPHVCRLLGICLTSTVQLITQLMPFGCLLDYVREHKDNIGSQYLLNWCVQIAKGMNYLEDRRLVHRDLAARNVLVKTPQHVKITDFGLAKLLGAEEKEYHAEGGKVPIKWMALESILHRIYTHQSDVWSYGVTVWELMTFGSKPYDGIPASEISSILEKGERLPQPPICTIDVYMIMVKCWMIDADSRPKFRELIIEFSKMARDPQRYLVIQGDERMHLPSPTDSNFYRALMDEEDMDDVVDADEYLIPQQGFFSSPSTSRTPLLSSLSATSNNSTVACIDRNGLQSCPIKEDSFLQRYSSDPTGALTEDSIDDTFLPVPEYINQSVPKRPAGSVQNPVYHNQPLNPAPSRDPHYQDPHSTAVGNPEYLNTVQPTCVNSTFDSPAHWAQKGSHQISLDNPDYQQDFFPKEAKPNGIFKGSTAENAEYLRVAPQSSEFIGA

In [1], `O=c1[nH]c2ccccc2c(O)c1/C=N/c1nc(-c2ccncc2)n[nH]1` [Compound 3e, (E)-4-hydroxy-3-(((3-(pyridin-4-yl)-1H-1,2,4-triazol-5-yl)imino)methyl)quinolin-2(1H)-one] displayed a viability at 96 h, 50 µM of 86%. Also, the IC50 in data set [2] is 32 ± 3 nM; in data set [3], 31 ± 3 nM; in data set [4], 34 ± 3 nM; in [8], 79 ± 5 nM; in data set [9], 39 ± 2 nM. The GI50 in [5] was determined as 33 nM. In addition, the “Caspase-3 Conc.” value in [6] worked out at 587 ± 5 pg/mL. Moreover, the “Caspase-3 Fold change” value in data set [6] was 9. For the same compound, the “Bcl-2 Conc.” value in [7] stood at 0.84 ng/mL.

In [1], `O=c1[nH]c2ccccc2c(O)c1C=Nc1ccc(NS(=O)(=O)c2ncccn2)cc1` [Compound 5a, N-(4-(((4-hydroxy-2-oxo-1,2-dihydroquinolin-3-yl)methylene)amino)phenyl) pyrimidine-2-sulfonamide] returned a viability at 96 h, 50 µM of 87%. The IC50 in data set [2] was determined as 25 ± 2 nM; in data set [3], 23 ± 2 nM; in data set [4], 26 ± 2 nM; in data set [8], 71 ± 4 nM; in [9] it was 31 ± 2 nM. Also, in data set [5], the GI50 worked out at 25 nM. Moreover, the “Caspase-3 Conc.” value in [6] is 710 ± 6 pg/mL. In addition, the “Caspase-3 Fold change” value in data set [6] amounted to 11. Besides, the “Bcl-2 Conc.” value in data set [7] was found to be 0.62 ng/mL. In addition, in data set [7] (versus untreated control), the “Bcl-2 Fold reduction” value is ~8.
